Laboratory results as given in PubChem BioAssay AID2060616 (Molecular Pharmacology Branch, DTP, NCI, 2025).

Test system: 377384-186-R-J1-PDC complex spheroid viability
Assay: Anticancer human tumor 377384-186-R-J1-PDC patient-derived pancreatic carcinoma cell line growth inhibition [CLK]
Settings: for IC50: curve of first compound; for viability, T/C: stronger effect = lower value
How it was run: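 Multi-cell-type spheroids combined patient-derived tumor cells with HUVEC endothelial cells and human mesenchymal stem cells. Paired agents were dosed in half-log steps down from about clinical Cmax, or from 10 microM where Cmax was unknown.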

[1] = second compound 0.0316 µM, first compound 0.0316 µM
[2] = second compound 0.0316 µM, first compound 0.1 µM
[3] = second compound 0.1 µM, first compound 0.0316 µM
[4] = second compound 0.1 µM, first compound 0.1 µM
[5] = second compound 0.316 µM, first compound 0.0316 µM
[6] = second compound 0.316 µM, first compound 0.1 µM
[7] = second compound 1 µM, first compound 0.0316 µM
[8] = second compound 1 µM, first compound 0.1 µM
[9] = second compound 3.16 µM, first compound 0.0316 µM
[10] = second compound 3.16 µM, first compound 0.1 µM
[11] = second compound 10 µM, first compound 0.0316 µM
[12] = second compound 10 µM, first compound 0.1 µM
[13] = second compound 0.0316 µM, first compound 0.316 µM
[14] = second compound 0.0316 µM, first compound 1 µM
[15] = second compound 0.0316 µM, first compound 3.16 µM
[16] = second compound 0.0316 µM, first compound 10 µM
[17] = second compound 0.1 µM, first compound 0.316 µM
[18] = second compound 0.1 µM, first compound 1 µM
[19] = second compound 0.1 µM, first compound 3.16 µM
[20] = second compound 0.1 µM, first compound 10 µM
[21] = second compound 0.316 µM, first compound 0.316 µM
[22] = second compound 0.316 µM, first compound 1 µM
[23] = second compound 0.316 µM, first compound 3.16 µM
[24] = second compound 0.316 µM, first compound 10 µM
[25] = second compound 1 µM, first compound 0.316 µM
[26] = second compound 1 µM, first compound 1 µM
[27] = second compound 1 µM, first compound 3.16 µM
[28] = second compound 1 µM, first compound 10 µM
[29] = second compound 3.16 µM, first compound 0.316 µM
[30] = second compound 3.16 µM, first compound 1 µM
[31] = second compound 3.16 µM, first compound 3.16 µM
[32] = second compound 3.16 µM, first compound 10 µM
[33] = second compound 10 µM, first compound 0.316 µM
[34] = second compound 10 µM, first compound 1 µM
[35] = second compound 10 µM, first compound 3.16 µM
[36] = second compound 10 µM, first compound 10 µM
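Note: spheroids exposed to agents for 7 days before reading.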
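Throughout, for viability, T/C: luminescence signal used as a stand-in for viable cells.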

## Cn1ncnc1[C@H]1c2n[nH]c(=O)c3cc(F)cc(c23)N[C@@H]1c1ccc(F)cc1 + CN1CCN(c2cc(C(=O)Nc3cc4cc(-c5cnn(C)c5)ccc4cn3)ccn2)CC1
Second compound 0.0316 µM
  IC50: > 100 nM
Second compound 0.1 µM
  IC50: 50 nM
Second compound 0.316 µM
  IC50: < 0.316 nM
Second compound 1 µM
  IC50: < 0.316 nM
Second compound 3.16 µM
  IC50: < 0.316 nM
Second compound 10 µM
  IC50: < 0.316 nM
Second compound 0.0316 µM, first compound 0.000316 µM
  viability, T/C: 90.4%
Second compound 0.0316 µM, first compound 0.001 µM
  viability, T/C: 77.8%
Second compound 0.0316 µM, first compound 0.00316 µM
  viability, T/C: 74.8%
Second compound 0.0316 µM, first compound 0.01 µM
  viability, T/C: 65.6%
[1]
  viability, T/C: 55.4%
[2]
  viability, T/C: 52.1%
Second compound 0.1 µM, first compound 0.000316 µM
  viability, T/C: 88.1%
Second compound 0.1 µM, first compound 0.001 µM
  viability, T/C: 81.2%
Second compound 0.1 µM, first compound 0.00316 µM
  viability, T/C: 70.4%
Second compound 0.1 µM, first compound 0.01 µM
  viability, T/C: 58.9%
[3]
  viability, T/C: 53.9%
[4]
  viability, T/C: 46%
Second compound 0.316 µM, first compound 0.000316 µM
  viability, T/C: 21.2%
Second compound 0.316 µM, first compound 0.001 µM
  viability, T/C: 23.7%
Second compound 0.316 µM, first compound 0.00316 µM
  viability, T/C: 25.9%
Second compound 0.316 µM, first compound 0.01 µM
  viability, T/C: 22.4%
[5]
  viability, T/C: 21.9%
[6]
  viability, T/C: 18.6%
Second compound 1 µM, first compound 0.000316 µM
  viability, T/C: 0.86%
Second compound 1 µM, first compound 0.001 µM
  viability, T/C: 0.77%
Second compound 1 µM, first compound 0.00316 µM
  viability, T/C: 1.08%
Second compound 1 µM, first compound 0.01 µM
  viability, T/C: 0.85%
[7]
  viability, T/C: 0.82%
[8]
  viability, T/C: 1.53%
Second compound 3.16 µM, first compound 0.000316 µM
  viability, T/C: 0.25%
Second compound 3.16 µM, first compound 0.001 µM
  viability, T/C: 0.59%
Second compound 3.16 µM, first compound 0.00316 µM
  viability, T/C: 1.07%
Second compound 3.16 µM, first compound 0.01 µM
  viability, T/C: 0.33%
[9]
  viability, T/C: 0.69%
[10]
  viability, T/C: 0.48%
Second compound 10 µM, first compound 0.000316 µM
  viability, T/C: 0.45%
Second compound 10 µM, first compound 0.001 µM
  viability, T/C: 1.52%
Second compound 10 µM, first compound 0.00316 µM
  viability, T/C: 0.56%
Second compound 10 µM, first compound 0.01 µM
  viability, T/C: 1.45%
[11]
  viability, T/C: 0.51%
[12]
  viability, T/C: 0.39%

## Nc1ccn(C2OC(CO)C(O)C2(F)F)c(=O)n1 (stereo unspecified) + CN1CCN(c2cc(C(=O)Nc3cc4cc(-c5cnn(C)c5)ccc4cn3)ccn2)CC1
Second compound 0.0316 µM
  IC50: < 31.6 nM
Second compound 0.1 µM
  IC50: < 31.6 nM
Second compound 0.316 µM
  IC50: < 31.6 nM
Second compound 1 µM
  IC50: < 31.6 nM
Second compound 3.16 µM
  IC50: < 31.6 nM
Second compound 10 µM
  IC50: < 31.6 nM
[1]
  viability, T/C: 7.87%
[2]
  viability, T/C: 4.22%
[13]
  viability, T/C: 5.68%
[14]
  viability, T/C: 2.98%
[15]
  viability, T/C: 2.97%
[16]
  viability, T/C: 2.28%
[3]
  viability, T/C: 9.1%
[4]
  viability, T/C: 4.08%
[17]
  viability, T/C: 3.35%
[18]
  viability, T/C: 3.48%
[19]
  viability, T/C: 2.39%
[20]
  viability, T/C: 1.85%
[5]
  viability, T/C: 11.6%
[6]
  viability, T/C: 6.64%
[21]
  viability, T/C: 4.53%
[22]
  viability, T/C: 3.35%
[23]
  viability, T/C: 2.23%
[24]
  viability, T/C: 2.18%
[7]
  viability, T/C: 1.03%
[8]
  viability, T/C: 0.46%
[25]
  viability, T/C: 1.22%
[26]
  viability, T/C: 0.37%
[27]
  viability, T/C: 0.88%
[28]
  viability, T/C: 1.48%
[9]
  viability, T/C: 0.37%
[10]
  viability, T/C: 0.29%
[29]
  viability, T/C: 0.92%
[30]
  viability, T/C: 0.2%
[31]
  viability, T/C: 0.33%
[32]
  viability, T/C: 0.29%
[11]
  viability, T/C: 0.21%
[12]
  viability, T/C: 0.61%
[33]
  viability, T/C: 0.42%
[34]
  viability, T/C: 0.38%
[35]
  viability, T/C: 0.23%
[36]
  viability, T/C: 0.54%

## O=c1[nH]cc(F)c(=O)[nH]1 + CN1CCN(c2cc(C(=O)Nc3cc4cc(-c5cnn(C)c5)ccc4cn3)ccn2)CC1
Second compound 0.0316 µM
  IC50: 7600 nM
Second compound 0.1 µM
  IC50: > 10000 nM
Second compound 0.316 µM
  IC50: < 31.6 nM
Second compound 1 µM
  IC50: < 31.6 nM
Second compound 3.16 µM
  IC50: < 31.6 nM
Second compound 10 µM
  IC50: < 31.6 nM
[1]
  viability, T/C: 121%
[2]
  viability, T/C: 122%
[13]
  viability, T/C: 91.6%
[14]
  viability, T/C: 84.5%
[15]
  viability, T/C: 60.1%
[16]
  viability, T/C: 46.5%
[3]
  viability, T/C: 104%
[4]
  viability, T/C: 107%
[17]
  viability, T/C: 92.2%
[18]
  viability, T/C: 94.4%
[19]
  viability, T/C: 65.4%
[20]
  viability, T/C: 56.1%
[5]
  viability, T/C: 25.5%
[6]
  viability, T/C: 28.4%
[21]
  viability, T/C: 22.2%
[22]
  viability, T/C: 29.3%
[23]
  viability, T/C: 28.3%
[24]
  viability, T/C: 21.5%
[7]
  viability, T/C: 1.11%
[8]
  viability, T/C: 0.76%
[25]
  viability, T/C: 1.57%
[26]
  viability, T/C: 1.15%
[27]
  viability, T/C: 0.86%
[28]
  viability, T/C: 1.02%
[9]
  viability, T/C: 0.29%
[10]
  viability, T/C: 0.87%
[29]
  viability, T/C: 1.83%
[30]
  viability, T/C: 0.32%
[31]
  viability, T/C: 0.25%
[32]
  viability, T/C: 0.31%
[11]
  viability, T/C: 0.28%
[12]
  viability, T/C: 0.51%
[33]
  viability, T/C: 0.49%
[34]
  viability, T/C: 0.42%
[35]
  viability, T/C: 0.53%
[36]
  viability, T/C: 1.86%
